Key:
Format in all cases: cell-based
[1] = tested on: human dermal fibroblasts from LHON patients; test: Rescue of BSO-stressed fibroblasts from LHON patients (screen as Example A); conditions: Fibroblast, BSO-stressed LHON fibroblasts (GM03858), less than about 150 nM, read-out: EC50, protection against LHON
How it was run: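 LHON patient fibroblasts (Coriell GM03858) at 3,000 cells/well were pre-treated overnight with compounds serially diluted from a 150 μM master solution. Surviving cells were stained with 1.2 μM Calcein AM for 50-70 min at RT and read by fluorescence (485/525 nm), giving EC50.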

[2] = tested on: human dermal fibroblasts from CoQ10 deficient patients; test: Rescue of BSO-stressed fibroblasts from CoQ10 deficient patients (screen similar to Example A); conditions: Fibroblast, BSO-stressed fibroblasts from CoQ10 deficient patients harboring a CoQ2 mutation, less than about 150 nM, read-out: EC50, protection against CoQ10 deficiency
[3] = tested on: human dermal fibroblasts from Huntington's patients; test: Rescue of BSO-stressed fibroblasts from Huntington's patients (screen as Example A); conditions: Fibroblast, BSO-stressed Huntington's fibroblasts (GM 04281), less than about 150 nM, read-out: EC50, protection against Huntington's
How it was run: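 Coriell Huntington's line GM 04281 plated at 3,000 cells/well and attached overnight at 37 °C. Survival was read by Calcein AM (1.2 μM, 50-70 min, RT) fluorescence at 485/525 nm, giving EC50.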

[4] = tested on: Human dermal fibroblasts from Friedreich's Ataxia patients; test: Rescue of BSO-stressed FRDA fibroblasts (Calcein AM viability); conditions: BSO-stressed FRDA fibroblasts (GM04078), less than about 150 nM, read-out: EC50, protection against FRDA
How it was run: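 Patient FRDA fibroblasts (GM04078) seeded at 3,000 cells/well, given serially diluted compound from a 150 μM master solution, then stressed next day with 1 mM BSO.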

[5] = tested on: human dermal fibroblasts from Parkinson's Disease patients; test: Rescue of BSO-stressed fibroblasts from Parkinson's Disease patients (screen as Example A); conditions: Fibroblast, BSO-stressed Parkinson's Disease fibroblasts (AG20439), less than about 150 nM, read-out: EC50, protection against PD
How it was run: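 Dermal fibroblasts from a Parkinson's Disease patient (Coriell AG20439) were plated at 3,000 cells/well, attached overnight and pre-incubated overnight with serially diluted compounds (150 μM master solution). Survival was read by 1.2 μM calcein AM (50–70 min, RT, 485/525 nm fluorescence) and converted to EC50.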

Measured: EC50

CC1=C(C)C(=O)C(CCCC(=O)Nc2ccc(C#N)cc2)=C(C)C1=O [N-(4-cyanophenyl)-4-(2,4,5-trimethyl-3,6-dioxocyclohexa-1,4-dienyl)butanamide]
< 150 nM: all assays above

CC1=C(C)C(=O)C(CCCC(=O)NCc2ccc(F)cc2)=C(C)C1=O [N-(4-fluorobenzyl)-4-(2,4,5-trimethyl-3,6-dioxocyclohexa-1,4-dienyl)butanamide]
< 150 nM: all assays above

CC1=C(C)C(=O)C(CCCC(=O)NCCc2ccc(F)cc2)=C(C)C1=O [N-(4-fluorophenethyl)-4-(2,4,5-trimethyl-3,6-dioxocyclohexa-1,4-dienyl)butanamide]
< 150 nM: all assays above

CC1=C(C)C(=O)C(CCCC(=O)Nc2ccc(F)cc2)=C(C)C1=O [N-(4-fluorophenyl)-4-(2,4,5-trimethyl-3,6-dioxocyclohexa-1,4-dienyl)butanamide]
< 150 nM: all assays above

CC1=C(C)C(=O)C(CCCC(=O)N(C)c2ccc(F)cc2)=C(C)C1=O [N-(4-fluorophenyl)-N-methyl-4-(2,4,5-trimethyl-3,6-dioxocyclohexa-1,4-dienyl)butanamide]
< 150 nM: all assays above

CC1=C(C)C(=O)C(CCCC(=O)Nc2ccc3c(c2)OCO3)=C(C)C1=O [N-(benzo[d][1,3]dioxol-5-yl)-4-(2,4,5-trimethyl-3,6-dioxocyclohexa-1,4-dienyl)butanamide]
< 150 nM: all assays above

CCN(Cc1ccccc1)C(=O)CCCC1=C(C)C(=O)C(C)=C(C)C1=O [N-benzyl-N-ethyl-4-(2,4,5-trimethyl-3,6-dioxocyclohexa-1,4-dienyl)butanamide]
< 150 nM: all assays above

CC1=C(C)C(=O)C(CCCC(=O)N(Cc2ccccc2)C(C)C)=C(C)C1=O [N-benzyl-N-isopropyl-4-(2,4,5-trimethyl-3,6-dioxocyclohexa-1,4-dienyl)butanamide]
< 150 nM: all assays above

CC1=C(C)C(=O)C(CCCC(=O)N(C)Cc2ccccc2)=C(C)C1=O [N-benzyl-N-methyl-4-(2,4,5-trimethyl-3,6-dioxocyclohexa-1,4-dienyl)butanamide]
< 150 nM: all assays above

CC1=C(C)C(=O)C(CCCC(=O)N(C)c2ccccc2)=C(C)C1=O [N-methyl-N-phenyl-4-(2,4,5-trimethyl-3,6-dioxocyclohexa-1,4-dienyl)butanamide]
< 150 nM: all assays above

CC1=C(C)C(=O)C(CCCC(=O)Nc2ccc(C)cc2)=C(C)C1=O [N-p-tolyl-4-(2,4,5-trimethyl-3,6-dioxocyclohexa-1,4-dienyl)butanamide]
< 150 nM: all assays above

CC1=C(C)C(=O)C(CCCC(=O)Nc2ccccc2)=C(C)C1=O [N-phenyl-4-(2,4,5-trimethyl-3,6-dioxocyclohexa-1,4-dienyl)butanamide]
< 150 nM: all assays above
